A value given as a limit tells only on which side of the number the result lay.

In ChEMBL document CHEMBL1145277, “Discovery of 3,3-dimethyl-5-hydroxypipecolic hydroxamate-based inhibitors of aggrecanase and MMP-13” (Bioorg Med Chem Lett, 2005) one finds IC50 and inhibition data, which are given here for 20 molecules.

Experiment [1] addresses Disintegrin and metalloproteinase domain-containing protein 17 (Homo sapiens, UniProt P78536). As to the kind of experiment: Inhibitory concentration against TNF-alpha converting enzyme.
A short description of experiment [2]: Percent inhibition against Aggrecanase at 500 nM.
Another experiment has as its system Cell line. In words: Inhibitory concentration against TNF-alpha release in LPS-stimulated human whole blood. The format is functional, cell-based.
The next experiment has as its target Collagenase 3 (Homo sapiens, UniProt P45452). As to the kind of experiment: Inhibitory concentration against Matrix metalloprotease-13 (MMP-13).
The target in a further experiment is T1, Interstitial collagenase (Homo sapiens, UniProt P03956).
T1 sequence (P03956 whole entry): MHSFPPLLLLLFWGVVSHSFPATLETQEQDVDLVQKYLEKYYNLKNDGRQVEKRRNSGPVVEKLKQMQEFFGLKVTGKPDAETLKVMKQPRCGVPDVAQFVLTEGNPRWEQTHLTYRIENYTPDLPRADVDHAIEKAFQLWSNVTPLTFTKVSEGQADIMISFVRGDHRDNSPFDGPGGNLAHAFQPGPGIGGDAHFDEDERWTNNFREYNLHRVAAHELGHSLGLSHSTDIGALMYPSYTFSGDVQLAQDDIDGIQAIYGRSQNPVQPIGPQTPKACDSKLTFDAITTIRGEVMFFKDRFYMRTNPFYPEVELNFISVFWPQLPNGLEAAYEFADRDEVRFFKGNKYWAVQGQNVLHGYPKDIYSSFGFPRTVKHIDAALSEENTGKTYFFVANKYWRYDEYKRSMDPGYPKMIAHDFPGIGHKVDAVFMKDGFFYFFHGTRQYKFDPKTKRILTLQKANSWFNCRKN
In words: Inhibitory concentration against Matrix metalloprotease-1 (MMP-1).

Experiment [3] in a line: Inhibitory concentration against Aggrecanase.

Chain of Disintegrin and metalloproteinase domain-containing protein 17 (P78536 whole entry, the tested form may be a part): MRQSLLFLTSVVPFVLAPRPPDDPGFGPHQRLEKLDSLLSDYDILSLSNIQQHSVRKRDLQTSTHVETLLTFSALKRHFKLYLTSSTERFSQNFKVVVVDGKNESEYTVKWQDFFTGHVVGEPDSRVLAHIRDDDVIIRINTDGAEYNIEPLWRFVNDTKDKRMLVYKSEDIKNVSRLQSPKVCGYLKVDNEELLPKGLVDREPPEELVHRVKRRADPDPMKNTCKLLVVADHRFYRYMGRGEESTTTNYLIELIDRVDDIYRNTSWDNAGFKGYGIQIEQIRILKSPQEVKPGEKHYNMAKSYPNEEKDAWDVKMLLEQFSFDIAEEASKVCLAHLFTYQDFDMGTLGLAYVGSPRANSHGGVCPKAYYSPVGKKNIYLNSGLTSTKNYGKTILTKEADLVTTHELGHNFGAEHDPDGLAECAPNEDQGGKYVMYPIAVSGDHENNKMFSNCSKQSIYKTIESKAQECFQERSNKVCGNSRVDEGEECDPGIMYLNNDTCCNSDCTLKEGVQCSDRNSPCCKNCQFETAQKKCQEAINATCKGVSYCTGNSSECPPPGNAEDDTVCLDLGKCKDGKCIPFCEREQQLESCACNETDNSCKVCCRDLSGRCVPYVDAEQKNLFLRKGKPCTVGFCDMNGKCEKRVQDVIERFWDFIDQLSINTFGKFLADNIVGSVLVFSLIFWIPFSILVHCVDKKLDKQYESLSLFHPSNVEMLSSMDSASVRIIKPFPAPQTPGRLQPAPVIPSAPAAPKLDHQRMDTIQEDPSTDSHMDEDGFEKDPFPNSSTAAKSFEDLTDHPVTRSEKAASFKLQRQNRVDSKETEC

With `Cc1cnsc1COc1ccc(S(=O)(=O)N2C[C@H](O)CC(C)(C)[C@@H]2C(=O)NO)cc1`, the values for the IC50 (in experiment [1]; with Cell line) were 0.016 µM and 4.95 µM, respectively. Moreover, the inhibition in experiment [2] came to 55%.
In the case of `Cc1cccc(COc2ccc(S(=O)(=O)N3C[C@H](O)CC(C)(C)[C@@H]3C(=O)NO)cc2)c1`, the IC50 is 0.0028 µM at Collagenase 3; 0.012 µM in experiment [1]; 0.773 µM on Interstitial collagenase; 25.9 µM with Cell line; more than 0.1 µM in experiment [3].
Turning to `Cc1ncccc1COc1ccc(S(=O)(=O)N2C[C@H](O)CC(C)(C)[C@@H]2C(=O)NO)cc1`, the IC50 was 0.0067 µM in experiment [1], 2 µM in the experiment on Cell line and 0.091 µM in experiment [3].
Take `CC1(C)C[C@@H](O)CN(S(=O)(=O)c2ccc(OCc3ccnc4ccccc34)cc2)[C@H]1C(=O)NO`: the IC50 at Collagenase 3 was 0.0078 µM; against Interstitial collagenase, 0.17 µM; in the experiment with Cell line, 0.95 µM; in experiment [3], 0.015 µM.
`CC1(C)C[C@@H](O)CN(S(=O)(=O)c2ccc(OCc3ccc(Br)cc3)cc2)[C@H]1C(=O)NO`: the IC50 is 0.0014 µM on Collagenase 3; 0.01 µM in experiment [1]; 0.1 µM against Interstitial collagenase; 7.7 µM in the experiment with Cell line; more than 0.1 µM in experiment [3].
In the case of `Cc1cc(F)ccc1COc1ccc(S(=O)(=O)N2C[C@H](O)CC(C)(C)[C@@H]2C(=O)NO)cc1`, the half-inhibitory concentration (IC50) against Collagenase 3 worked out at 0.0035 µM; in experiment [1], 0.0052 µM; against Interstitial collagenase it was 0.255 µM; with Cell line, 5.48 µM; in experiment [3] it was 0.0027 µM.
For `Cc1ccccc1COc1ccc(S(=O)(=O)N2C[C@H](O)CC(C)(C)[C@@H]2C(=O)NO)cc1` the same measures were 0.014 µM, 0.0073 µM, 0.69 µM, 4.9 µM and 0.038 µM.
Regarding `CC(C)c1ccccc1COc1ccc(S(=O)(=O)N2C[C@H](O)CC(C)(C)[C@@H]2C(=O)NO)cc1`, the IC50 against Collagenase 3 was 0.188 µM; in experiment [1], 0.012 µM; against Interstitial collagenase it was 2.3 µM; in the experiment with Cell line it was 1.8 µM. This molecule also displayed an inhibition in experiment [2] of 78%.
On to `CCc1ccccc1COc1ccc(S(=O)(=O)N2C[C@H](O)CC(C)(C)[C@@H]2C(=O)NO)cc1`, for which the IC50 was 0.036 µM on Collagenase 3; 0.0067 µM in experiment [1]; 1.5 µM on Interstitial collagenase; 1.1 µM in the experiment on Cell line; 0.067 µM in experiment [3].
For the molecule `CC1(C)C[C@@H](O)CN(S(=O)(=O)c2ccc(OCc3ccc(F)cc3Cl)cc2)[C@H]1C(=O)NO`, the half-maximal inhibitory concentration (IC50) against Collagenase 3 was found to be 0.0005 µM; at Interstitial collagenase it was 0.592 µM; with Cell line it was 10.2 µM.
Consider `Cc1c(F)cccc1COc1ccc(S(=O)(=O)N2C[C@H](O)CC(C)(C)[C@@H]2C(=O)NO)cc1`, for which the IC50 on Collagenase 3 was found to be 0.0043 µM; in experiment [1], 0.017 µM; against Interstitial collagenase, 0.679 µM; in the experiment with Cell line it was 2.88 µM; in experiment [3] it was 0.0039 µM.
For `Cc1ccc(F)cc1COc1ccc(S(=O)(=O)N2C[C@H](O)CC[C@@H]2C(=O)NO)cc1` the same measures were 0.0021 µM, 0.0062 µM, 5.1 µM, 1.4 µM and 0.145 µM.
In the case of `Cc1nscc1COc1ccc(S(=O)(=O)N2C[C@H](O)CC(C)(C)[C@@H]2C(=O)NO)cc1`, the IC50 in experiment [1] is 0.012 µM; in the experiment with Cell line, 5.2 µM. In experiment [2], this molecule gave an inhibition of 76%.
For the molecule `Cc1ccc(F)cc1COc1ccc(S(=O)(=O)N2C[C@H](O)CC(C)(C)[C@@H]2C(=O)NO)cc1`, the IC50 at Collagenase 3 was determined as 0.0065 µM; in experiment [1], 0.0073 µM; against Interstitial collagenase, 0.79 µM; with Cell line, 3.45 µM; in experiment [3], 0.04 µM.
Consider `Cc1ccc(COc2ccc(S(=O)(=O)N3C[C@H](O)CC(C)(C)[C@@H]3C(=O)NO)cc2)cc1`, for which the IC50 against Collagenase 3 is 0.0012 µM; in experiment [1] it was 0.011 µM; against Interstitial collagenase, 0.198 µM; in the experiment with Cell line, 19.2 µM. The molecule further displayed an inhibition in experiment [2] of 19%.
Take `CC1(C)C[C@@H](O)CN(S(=O)(=O)c2ccc(OCc3ccc(Cl)cc3Cl)cc2)[C@H]1C(=O)NO`: the IC50 at Collagenase 3 was 0.003 µM; in experiment [1] it was 0.019 µM; against Interstitial collagenase, 0.43 µM; with Cell line, 31 µM; in experiment [3] it was 0.0021 µM.
As to `CC1(C)C[C@@H](O)CN(S(=O)(=O)c2ccc(OCc3nccc4ccccc34)cc2)[C@H]1C(=O)NO`, the IC50 is 0.053 µM against Collagenase 3; 0.01 µM in experiment [1]; 0.29 µM against Interstitial collagenase; 2.43 µM in the experiment with Cell line; more than 0.1 µM in experiment [3].
For `CC1(C)C[C@@H](O)CN(S(=O)(=O)c2ccc(OCc3ccccc3Br)cc2)[C@H]1C(=O)NO` the same measures were 0.008 µM, 0.011 µM, 0.715 µM, 8.9 µM and 0.016 µM.
For `CC1(C)C[C@@H](O)CN(S(=O)(=O)c2ccc(OCc3cccc(Br)c3)cc2)[C@H]1C(=O)NO`, the IC50 in experiment [1] turned out to be 0.015 µM; with Cell line, 18.9 µM. Besides, the inhibition in experiment [2] came out at 57%.
Turning to `CC1(C)C[C@@H](O)CN(S(=O)(=O)c2ccc(OCc3ccncc3Cl)cc2)[C@H]1C(=O)NO`, the IC50 at Collagenase 3 came out at 0.019 µM; at Interstitial collagenase it was 1.1 µM; in the experiment on Cell line it was 10.2 µM; in experiment [3] it was 0.018 µM.

The IC50 is the point on the concentration scale where inhibition reaches its midpoint. A low value points to greater potency in that assay. Usually inhibition stands for the drop in the measured response relative to a control, in per cent. Read a low inhibition as a response near the control.
